Reference: patent US10457709B2, “Antimicrobial peptides, their variants and uses” (priority 2015, dated 2019)
Read-outs that look alike come from different tables or passages of the source. Square brackets hold non-standard residues; d marks the D form. Peptide text beside a SMILES is read from it.

Tests used:
[1] = tested on: Candida albicans clinical strains; test: MIC, clinical yeast strains; assay type: cell-based; set-up: unit: μg/ml
Summary of the method: (§1)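 MIC = lowest concentration without visual growth after 20–24 h at 37° C. Microbroth dilution, 5.0×10^5 cfu/ml, 0.125–128 μg/ml range; MH broth for bacteria, potato dextrose broth for yeasts.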

[2] = tested on: C. parapsilosis clinical strains; test: MIC, clinical yeast strains; assay type: cell-based, Candida parapsilosis; set-up: unit: µg/ml
Summary of the method: as §1

[3] = tested on: C. quillermondiae clinical strains; test: MIC, clinical yeast strains; assay type: cell-based, Candida quillermondiae; set-up: unit: μg/ml; details: C. quillermondiae clinical yeast strain 1
Summary of the method: as §1

[4] = tested on: Escherichia coli clinical strains; assay type: cell-based; details: microdilution, Muller Hinton broth-cation adjusted, 0.02% BSA, 0.2% acetic acid
Summary of the method: as §1

[5] = tested on: Klebsiella pneumoniae clinical strains; assay type: cell-based; details: microdilution, Muller Hinton broth-cation adjusted, 0.02% BSA, 0.2% acetic acid
Summary of the method: as §1

[6] = tested on: Pseudomonas aeruginosa clinical strains; assay type: cell-based; details: microdilution, Muller Hinton broth-cation adjusted, 0.02% BSA, 0.2% acetic acid
Summary of the method: as §1

[7] = tested on: Proteus mirabilis clinical strains; assay type: cell-based; set-up: Minimum inhibitory concentration: unit: μg/ml; details: microdilution, Muller Hinton broth-cation adjusted, 0.02% BSA, 0.2% acetic acid
Summary of the method: as §1

[8] = tested on: Enterobacter cloacae clinical strains; assay type: cell-based; set-up: Minimum inhibitory concentration: unit: μg/ml; details: microdilution, Muller Hinton broth-cation adjusted, 0.02% BSA, 0.2% acetic acid
Summary of the method: as §1

[9] = tested on: Serratia marcescens clinical strains; assay type: cell-based; set-up: Minimum inhibitory concentration: unit: μg/ml; details: microdilution, Muller Hinton broth-cation adjusted, 0.02% BSA, 0.2% acetic acid
Summary of the method: as §1

[10] = tested on: Staphylococcus aureus clinical strains; assay type: cell-based; set-up: Minimum inhibitory concentration: unit: μg/ml; details: microdilution, Muller Hinton broth-cation adjusted, 0.02% BSA, 0.2% acetic acid
Summary of the method: as §1

[11] = tested on: Streptococcus pneumoniae clinical strains; assay type: cell-based; set-up: Minimum inhibitory concentration: unit: μg/ml; details: microdilution, Muller Hinton broth-cation adjusted, 0.02% BSA, 0.2% acetic acid
Summary of the method: as §1

[12] = tested on: C. glabrata clinical strains; test: MIC, clinical yeast strains; assay type: cell-based, Candida glabrata; set-up: unit: µg/ml
Summary of the method: as §1

CC(C)C[C@@H](NC(=O)[C@@H](Cc1c[nH]c2ccccc12)NC(=O)[C@@H](Cc1ccccc1)NC(=O)[C@@H](Cc1c[nH]c2ccccc12)NC(=O)[C@@H](CCCCN)NC(=O)[C@@H](CCCNC(=N)N)NC(=O)[C@H](N)Cc1c[nH]c2ccccc12)C(=O)N[C@H](Cc1ccccc1)C(=O)N[C@H](CCCCN)C(=O)N[C@H](CCCCN)C(=O)N[C@H](CCCNC(=N)N)C(=O)O [Chain309D] (H-[dW][dR][dK][dW][dF][dW][dL][dF][dK][dK][dR]-OH)
Minimum inhibitory concentration ([1]; Candida albicans clinical yeast strain 1): 32
Minimum inhibitory concentration ([1]; Candida albicans clinical yeast strain 2): 32
Minimum inhibitory concentration ([1]; Candida albicans clinical yeast strain 3): 16
Minimum inhibitory concentration ([1]; Candida albicans clinical yeast strain 4): 16
Minimum inhibitory concentration ([1]; Candida albicans clinical yeast strain 5): 32
Minimum inhibitory concentration ([2]; C. parapsilosis clinical yeast strain 1): 64
Minimum inhibitory concentration ([2]; C. parapsilosis clinical yeast strain 2): 64
Minimum inhibitory concentration ([2]; C. parapsilosis clinical yeast strain 3): 32
Minimum inhibitory concentration ([2]; C. parapsilosis clinical yeast strain 4): 16
Minimum inhibitory concentration [3]: 8
Minimum inhibitory concentration ([4]; Escherichia coli clinical strain 1): 0.5
Minimum inhibitory concentration ([4]; Escherichia coli clinical strain 2): 32
Minimum inhibitory concentration ([4]; Escherichia coli clinical strain 3): 16
Minimum inhibitory concentration ([4]; Escherichia coli clinical strain 4): 32
Minimum inhibitory concentration ([4]; Escherichia coli clinical strain 5): 16
Minimum inhibitory concentration ([5]; Klebsiella pneumoniae clinical strain 1): 128
Minimum inhibitory concentration ([5]; Klebsiella pneumoniae clinical strain 2): 32
Minimum inhibitory concentration ([5]; Klebsiella pneumoniae clinical strain 3): >128
Minimum inhibitory concentration ([5]; Klebsiella pneumoniae clinical strain 4): 32
Minimum inhibitory concentration ([5]; Klebsiella pneumoniae clinical strain 5): 128
Minimum inhibitory concentration ([6]; Pseudomonas aeruginosa clinical strain 1): 16
Minimum inhibitory concentration ([6]; Pseudomonas aeruginosa clinical strain 2): 32
Minimum inhibitory concentration ([6]; Pseudomonas aeruginosa clinical strain 3): 16
Minimum inhibitory concentration ([6]; Pseudomonas aeruginosa clinical strain 4): 32
Minimum inhibitory concentration ([6]; Pseudomonas aeruginosa clinical strain 5): 8
Minimum inhibitory concentration ([7]; Proteus mirabilis clinical strain 1): >128
Minimum inhibitory concentration ([7]; Proteus mirabilis clinical strain 2): >128
Minimum inhibitory concentration ([7]; Proteus mirabilis clinical strain 3): >128
Minimum inhibitory concentration ([7]; Proteus mirabilis clinical strain 4): >128
Minimum inhibitory concentration ([7]; Proteus mirabilis clinical strain 5): >128
Minimum inhibitory concentration ([8]; Enterobacter cloacae clinical strain 1): >128
Minimum inhibitory concentration ([8]; Enterobacter cloacae clinical strain 2): 128
Minimum inhibitory concentration ([8]; Enterobacter cloacae clinical strain 3): 64
Minimum inhibitory concentration ([8]; Enterobacter cloacae clinical strain 4): 64
Minimum inhibitory concentration ([8]; Enterobacter cloacae clinical strain 5): 32
Minimum inhibitory concentration ([9]; Serratia marcescens clinical strain 1): >128
Minimum inhibitory concentration ([9]; Serratia marcescens clinical strain 2): >128
Minimum inhibitory concentration ([9]; Serratia marcescens clinical strain 3): >128
Minimum inhibitory concentration ([9]; Serratia marcescens clinical strain 4): >128
Minimum inhibitory concentration ([9]; Serratia marcescens clinical strain 5): >128
Minimum inhibitory concentration ([10]; Staphylococcus aureus clinical strain 1): 8
Minimum inhibitory concentration ([10]; Staphylococcus aureus clinical strain 2): 16
Minimum inhibitory concentration ([10]; Staphylococcus aureus clinical strain 3): 8
Minimum inhibitory concentration ([10]; Staphylococcus aureus clinical strain 4): 8
Minimum inhibitory concentration ([10]; Staphylococcus aureus clinical strain 5): 8
Minimum inhibitory concentration ([11]; Streptococcus pneumoniae clinical strain 1): 64
Minimum inhibitory concentration ([11]; Streptococcus pneumoniae clinical strain 2): 64
Minimum inhibitory concentration ([11]; Streptococcus pneumoniae clinical strain 3): 64
Minimum inhibitory concentration ([11]; Streptococcus pneumoniae clinical strain 4): 64
Minimum inhibitory concentration ([11]; Streptococcus pneumoniae clinical strain 5): 64
Minimum inhibitory concentration ([12]; C. glabrata clinical yeast strain 1): 32
Minimum inhibitory concentration ([12]; C. glabrata clinical yeast strain 2): 64
Minimum inhibitory concentration ([12]; C. glabrata clinical yeast strain 3): 4
Minimum inhibitory concentration ([12]; C. glabrata clinical yeast strain 4): 128
